The experiment relates to MV-4-11 cells. Kind of experiment: Gene expression microarray analysis (Affymetrix PrimeView) and GSEA. The experiment is classed as cell-based, human. Further details: RFU PODN (11730768_x_at) / Fold change /veh PODN (11730768_x_at) / RFU LINC00158 (11744669_a_at) / Fold change /veh LINC00158 (11744669_a_at) / RFU DUSP10 (11751237_a_at) / Fold change /veh DUSP10 (11751237_a_at) / RFU ID3 (11757404_x_at) / Fold change /veh ID3 (11757404_x_at) / RFU PLEKHG5 (11737974_s_at) / Fold change /veh PLEKHG5 (11737974_s_at) / RFU LRRC4B (11730491_at) / Fold change /veh LRRC4B (11730491_at) / RFU GIMAP4 (11747438_a_at) / Fold change /veh GIMAP4 (11747438_a_at) / RFU KRT8 (11758183_x_at) / Fold change /veh KRT8 (11758183_x_at) / RFU CNN1 (11734310_a_at) / Fold change /veh CNN1 (11734310_a_at) / RFU VPS37D (11726825_at) / Fold change /veh VPS37D (11726825_at) / RFU C10orf10 (11716522_x_at) / Fold change /veh C10orf10 (11716522_x_at) / RFU KIR2DL2 /// KIR2DL4 /// KIR2DL5A /// KIR2DL5B /// KIR2DS1 /// KIR2DS2 /// KIR2DS3 /// KIR2DS4 /// KIR3DL3 /// KIR3DL3 /// KIR3DS1 (11738374_at) / Fold change /veh KIR2DL2 /// KIR2DL4 /// KIR2DL5A /// KIR2DL5B /// KIR2DS1 /// KIR2DS2 /// KIR2DS3 /// KIR2DS4 /// KIR3DL3 /// KIR3DL3 /// KIR3DS1 (11738374_at) / RFU C1QL1 (11718748_at) / Fold change /veh C1QL1 (11718748_at) / RFU TMPRSS4 (11747572_a_at) / Fold change /veh TMPRSS4 (11747572_a_at) / RFU HAMP (11756126_x_at) / Fold change /veh HAMP (11756126_x_at) / RFU RNFT2 (11725882_a_at) / Fold change /veh RNFT2 (11725882_a_at) / RFU NR4A2 (11747474_a_at) / Fold change /veh NR4A2 (11747474_a_at) / RFU ABCC12 (11746883_a_at) / Fold change /veh ABCC12 (11746883_a_at) / RFU TMEM136 (11760407_x_at) / Fold change /veh TMEM136 (11760407_x_at) / RFU CLDN22 /// WWC2 (11732394_at) / Fold change /veh CLDN22 /// WWC2 (11732394_at) / RFU HLA-DPB1 (11760878_x_at) / Fold change /veh HLA-DPB1 (11760878_x_at) / RFU SPINT1 (11716480_a_at) / Fold change /veh SPINT1 (11716480_a_at) / RFU GAP43 (11754022_s_at) / Fold change /veh GAP43 (11754022_s_at) / RFU A4GNT (11735810_at) / Fold change /veh A4GNT (11735810_at) / RFU PRB3 (11715151_x_at) / Fold change /veh PRB3 (11715151_x_at) / RFU TUBB4B (11761932_at) / Fold change /veh TUBB4B (11761932_at) / RFU CAPN14 (11732068_a_at) / Fold change /veh CAPN14 (11732068_a_at) / RFU TMCC2 (11721928_a_at) / Fold change /veh TMCC2 (11721928_a_at) / RFU IRGQ (11745062_a_at) / Fold change /veh IRGQ (11745062_a_at) / RFU FAM174B (11720279_a_at) / Fold change /veh FAM174B (11720279_a_at) / RFU TMPRSS4 (11748680_a_at) / Fold change /veh TMPRSS4 (11748680_a_at) / RFU FAM212B (11763350_a_at) / Fold change /veh FAM212B (11763350_a_at) / RFU PLEKHG5 (11743358_a_at) / Fold change /veh PLEKHG5 (11743358_a_at) / RFU ZSCAN30 (11745921_a_at) / Fold change /veh ZSCAN30 (11745921_a_at) / RFU CMKLR1 (11741424_a_at) / Fold change /veh CMKLR1 (11741424_a_at) / RFU LOC101060620 /// MAPK8IP1 (11723275_at) / Fold change /veh LOC101060620 /// MAPK8IP1 (11723275_at) / RFU SPTSSB (11747773_x_at) / Fold change /veh SPTSSB (11747773_x_at) / RFU PRSS12 (11739890_at) / Fold change /veh PRSS12 (11739890_at) / RFU BIN1 (11741810_x_at) / Fold change /veh BIN1 (11741810_x_at) / RFU WNT11 (11732464_a_at) / Fold change /veh WNT11 (11732464_a_at) / RFU C10orf10 (11716521_a_at) / Fold change /veh C10orf10 (11716521_a_at) / RFU C5orf56 (11738089_at) / Fold change /veh C5orf56 (11738089_at) / RFU CYB561 (11721691_x_at) / Fold change /veh CYB561 (11721691_x_at) / RFU ANKRD19P (11752326_a_at) / Fold change /veh ANKRD19P (11752326_a_at) / RFU OR2T12 /// OR2T33 /// OR2T8 (11738714_s_at) / Fold change /veh OR2T12 /// OR2T33 /// OR2T8 (11738714_s_at) / RFU VCAN (11748164_a_at) / Fold change /veh VCAN (11748164_a_at) / RFU JSRP1 (11732532_at) / Fold change /veh JSRP1 (11732532_at) / RFU KRTAP10-11 (11738290_x_at) / Fold change /veh KRTAP10-11 (11738290_x_at) / RFU MYO3A (11730013_a_at) / Fold change /veh MYO3A (11730013_a_at) / RFU EBF3 (11725865_a_at) / Fold change /veh EBF3 (11725865_a_at) / RFU CAMK2N1 (11719241_x_at) / Fold change /veh CAMK2N1 (11719241_x_at) / RFU C5orf56 (11738088_a_at) / Fold change /veh C5orf56 (11738088_a_at) / RFU OLFML3 (11715873_a_at) / Fold change /veh OLFML3 (11715873_a_at) / RFU LOC100653217 /// NTM (11731650_a_at) / Fold change /veh LOC100653217 /// NTM (11731650_a_at) / RFU MAPK11 (11762145_a_at) / Fold change /veh MAPK11 (11762145_a_at) / RFU FIZ1 (11724087_x_at) / Fold change /veh FIZ1 (11724087_x_at) / RFU OASL (11726364_x_at) / Fold change /veh OASL (11726364_x_at) / RFU SOX15 (11748057_x_at) / Fold change /veh SOX15 (11748057_x_at) / RFU CD79A (11719716_a_at) / Fold change /veh CD79A (11719716_a_at) / RFU HIST1H1D (11736915_at) / Fold change /veh HIST1H1D (11736915_at) / RFU CASKIN2 (11723855_a_at) / Fold change /veh CASKIN2 (11723855_a_at) / RFU LOC730098 (11760151_x_at) / Fold change /veh LOC730098 (11760151_x_at) / RFU OR4N2 (11742367_at) / Fold change /veh OR4N2 (11742367_at) / RFU PRRT2 (11749266_a_at) / Fold change /veh PRRT2 (11749266_a_at) / RFU SNX32 (11753110_a_at) / Fold change /veh SNX32 (11753110_a_at) / RFU CDHR5 (11726645_a_at) / Fold change /veh CDHR5 (11726645_a_at) / RFU RCAN1 (11760418_a_at) / Fold change /veh RCAN1 (11760418_a_at) / RFU FAM167A (11723789_a_at) / Fold change /veh FAM167A (11723789_a_at) / RFU FAM26E (11764081_at) / Fold change /veh FAM26E (11764081_at) / RFU ISYNA1 (11749810_s_at) / Fold change /veh ISYNA1 (11749810_s_at) / RFU ACY1 (11761880_at) / Fold change /veh ACY1 (11761880_at) / RFU 11764098_at / Fold change /veh 11764098_at / RFU SAMD14 (11745864_x_at) / Fold change /veh SAMD14 (11745864_x_at) / RFU NPB (11741838_a_at) / Fold change /veh NPB (11741838_a_at) / RFU TMPRSS6 (11731388_a_at) / Fold change /veh TMPRSS6 (11731388_a_at) / RFU KRTAP10-2 (11738614_at) / Fold change /veh KRTAP10-2 (11738614_at) / RFU ARHGAP8 /// PRR5-ARHGAP8 (11727945_x_at) / Fold change /veh ARHGAP8 /// PRR5-ARHGAP8 (11727945_x_at) / RFU KRTAP5-7 /// NADSYN1 (11734609_at) / Fold change /veh KRTAP5-7 /// NADSYN1 (11734609_at) / RFU RASL12 (11751679_a_at) / Fold change /veh RASL12 (11751679_a_at) / RFU CDKN2B (11736163_a_at) / Fold change /veh CDKN2B (11736163_a_at) / RFU PRF1 (11729649_at) / Fold change /veh PRF1 (11729649_at) / RFU, ZNF638 /// ZNF638-IT1 / Fold change vs veh, ZNF638 /// ZNF638-IT1 / RFU, PANK3 / Fold change vs veh, PANK3 / RFU, SH3YL1 / Fold change vs veh, SH3YL1 / RFU, ZEB2 / Fold change vs veh, ZEB2 / RFU, NRIP1 / Fold change vs veh, NRIP1 / RFU, PTTG1IP / Fold change vs veh, PTTG1IP / RFU, CAPN2 / Fold change vs veh, CAPN2 / RFU, MED14 / Fold change vs veh, MED14 / RFU, SNORA58 / Fold change vs veh, SNORA58 / RFU, C1orf63 / Fold change vs veh, C1orf63 / RFU, LRRFIP1 / Fold change vs veh, LRRFIP1 / RFU, NDUFAF7 / Fold change vs veh, NDUFAF7 / RFU, SLC12A2 / Fold change vs veh, SLC12A2 / RFU, IBTK / Fold change vs veh, IBTK / RFU, ESF1 / Fold change vs veh, ESF1 / Fold change vs veh, TMEM50B / RFU, TAOK1 / Fold change vs veh, TAOK1 / RFU, ACBD3 / Fold change vs veh, ACBD3 / RFU, TMA16 / Fold change vs veh, TMA16 / RFU, RWDD3 / Fold change vs veh, RWDD3 / RFU, BCAT1 / Fold change vs veh, BCAT1 / RFU, EDEM3 / Fold change vs veh, EDEM3 / RFU, TMEM33 / Fold change vs veh, TMEM33 / RFU, WDR75 / Fold change vs veh, WDR75 / RFU, AHCTF1 / Fold change vs veh, AHCTF1 / RFU, TFRC / Fold change vs veh, TFRC / RFU, ZDHHC17 / Fold change vs veh, ZDHHC17 / RFU, NOM1 / Fold change vs veh, NOM1 / RFU, ARL8B / Fold change vs veh, ARL8B / RFU, ZBTB11 / Fold change vs veh, ZBTB11 / RFU, TAMM41 / Fold change vs veh, TAMM41 / RFU, KIAA1704 /// LOC100996395 / Fold change vs veh, KIAA1704 /// LOC100996395 / RFU, ING1 / Fold change vs veh, ING1 / RFU, TRMT61B / Fold change vs veh, TRMT61B / RFU, FUBP3 / Fold change vs veh, FUBP3 / RFU, TP53 / Fold change vs veh, TP53 / RFU, TNKS2 / Fold change vs veh, TNKS2 / RFU, ZFP14 / Fold change vs veh, ZFP14 / RFU, ACTR2 / Fold change vs veh, ACTR2 / RFU, PPP3R1 / Fold change vs veh, PPP3R1 / RFU, PIK3R1 / Fold change vs veh, PIK3R1 / RFU, HNRNPA1 / Fold change vs veh, HNRNPA1 / RFU, RNF170 / Fold change vs veh, RNF170 / RFU, ZNF28 / Fold change vs veh, ZNF28 / RFU, RNGTT / Fold change vs veh, RNGTT / RFU, OGT / Fold change vs veh, OGT / RFU, BRD1 / Fold change vs veh, BRD1 / RFU, MARS / Fold change vs veh, MARS / RFU, ZNF655 / Fold change vs veh, ZNF655 / RFU, FAHD1 / Fold change vs veh, FAHD1 / RFU, BDP1 / Fold change vs veh, BDP1 / RFU, LRRCC1 / Fold change vs veh, LRRCC1 / RFU, ARID1A / Fold change vs veh, ARID1A / RFU, ZNF146 / Fold change vs veh, ZNF146 / RFU, ZNF330 / Fold change vs veh, ZNF330 / RFU, GPN3 / Fold change vs veh, GPN3 / RFU, C9orf123 / Fold change vs veh, C9orf123 / RFU, N4BP2L2 / Fold change vs veh, N4BP2L2 / RFU, ARFIP1 / Fold change vs veh, ARFIP1 / RFU, FAM179B / Fold change vs veh, FAM179B / RFU, BCL10 / Fold change vs veh, BCL10 / RFU, UHRF1BP1L / Fold change vs veh, UHRF1BP1L / RFU, BET1 / Fold change vs veh, BET1 / RFU, CNOT2 / Fold change vs veh, CNOT2 / RFU, ZNF268 / Fold change vs veh, ZNF268 / Fold change vs veh, ZNF507 / RFU, DGCR2 / Fold change vs veh, DGCR2 / RFU, WDSUB1 / Fold change vs veh, WDSUB1 / Fold change vs veh, HSP90B1 /// MIR3652 / RFU, ADSS / Fold change vs veh, ADSS / RFU, GK / Fold change vs veh, GK / RFU, ZNF148 / Fold change vs veh, ZNF148 / RFU, TAF9 / Fold change vs veh, TAF9 / RFU, SLC1A5 / Fold change vs veh, SLC1A5 / RFU, SLMO2 / Fold change vs veh, SLMO2 / RFU, ABCC4 / Fold change vs veh, ABCC4 / RFU, LOC101060439 /// RAP1B / Fold change vs veh, LOC101060439 /// RAP1B / RFU, RFX7 / Fold change vs veh, RFX7 / RFU, GTPBP10 / Fold change vs veh, GTPBP10 / RFU, CNEP1R1 / Fold change vs veh, CNEP1R1 / RFU, BIVM-ERCC5 /// ERCC5 / Fold change vs veh, BIVM-ERCC5 /// ERCC5 / RFU, ILF3 / Fold change vs veh, ILF3 / RFU 11762660_at / Fold change /veh 11762660_at / RFU VCAN (11757783_s_at) / Fold change /veh VCAN (11757783_s_at) / RFU DDX43 (11728927_at) / Fold change /veh DDX43 (11728927_at) / RFU KRT8 (11758188_x_at) / Fold change /veh KRT8 (11758188_x_at) / RFU NKD1 (11759106_at) / Fold change /veh NKD1 (11759106_at) / RFU SRD5A1 (11742802_a_at) / Fold change /veh SRD5A1 (11742802_a_at) / RFU TPSAB1 /// TPSB2 (11721975_s_at) / Fold change /veh TPSAB1 /// TPSB2 (11721975_s_at) / RFU GSTM3 (11746129_a_at) / Fold change /veh GSTM3 (11746129_a_at) / RFU IL23R (11737362_x_at) / Fold change /veh IL23R (11737362_x_at) / RFU TMEM51 (11727254_a_at) / Fold change /veh TMEM51 (11727254_a_at) / RFU PIWIL2 (11732686_x_at) / Fold change /veh PIWIL2 (11732686_x_at) / RFU ORM1 (11744905_x_at) / Fold change /veh ORM1 (11744905_x_at) / RFU CCDC152 (11743942_at) / Fold change /veh CCDC152 (11743942_at) / RFU ECM1 (11717891_a_at) / Fold change /veh ECM1 (11717891_a_at) / RFU IL23R (11748794_a_at) / Fold change /veh IL23R (11748794_a_at) / RFU TNFAIP8L3 (11732012_x_at) / Fold change /veh TNFAIP8L3 (11732012_x_at) / RFU MBOAT4 (11741988_at) / Fold change /veh MBOAT4 (11741988_at) / RFU 11764193_at / Fold change /veh 11764193_at / RFU TMEM53 (11763286_at) / Fold change /veh TMEM53 (11763286_at) / RFU MAGEB2 (11727129_at) / Fold change /veh MAGEB2 (11727129_at) / RFU TMEM200A (11744735_a_at) / Fold change /veh TMEM200A (11744735_a_at) / RFU CCDC152 (11751479_a_at) / Fold change /veh CCDC152 (11751479_a_at) / RFU FAM211A (11726209_a_at) / Fold change /veh FAM211A (11726209_a_at) / RFU RGS16 (11746705_a_at) / Fold change /veh RGS16 (11746705_a_at) / RFU VCAN (11755009_s_at) / Fold change /veh VCAN (11755009_s_at) / RFU RHOB (11743442_s_at) / Fold change /veh RHOB (11743442_s_at) / RFU RGS16 (11720943_a_at) / Fold change /veh RGS16 (11720943_a_at) / RFU RGS16 (11720944_at) / Fold change /veh RGS16 (11720944_at) / RFU, VPS4B / Fold change vs veh, VPS4B / RFU, CREB1 / Fold change vs veh, CREB1 / RFU, DNAJC13 / Fold change vs veh, DNAJC13 / RFU, GNAQ / Fold change vs veh, GNAQ / RFU, CDK5R1 / Fold change vs veh, CDK5R1 / RFU, ZRANB3 / Fold change vs veh, ZRANB3 / RFU, CUL4A / Fold change vs veh, CUL4A / RFU, CCNY / Fold change vs veh, CCNY / RFU, UFL1 / Fold change vs veh, UFL1 / RFU, COG3 / Fold change vs veh, COG3 / RFU, DIAPH2 / Fold change vs veh, DIAPH2 / RFU, SKA2 / Fold change vs veh, SKA2 / RFU, AFF3 / Fold change vs veh, AFF3 / RFU, LMF1 / Fold change vs veh, LMF1 / RFU, IPO11 / Fold change vs veh, IPO11 / RFU, DFFB / Fold change vs veh, DFFB / RFU, FOXP1 / Fold change vs veh, FOXP1 / RFU, CARD8 / Fold change vs veh, CARD8 / RFU, STRN3 / Fold change vs veh, STRN3 / RFU, ADK / Fold change vs veh, ADK / RFU, RASSF2 / Fold change vs veh, RASSF2 / RFU, WIPF1 / Fold change vs veh, WIPF1 / RFU, LARP1B / Fold change vs veh, LARP1B / RFU, RASA1 / Fold change vs veh, RASA1 / RFU, RB1 / Fold change vs veh, RB1 / RFU, PPFIA1 / Fold change vs veh, PPFIA1 / RFU, MAT2A / Fold change vs veh, MAT2A / RFU, CCT5 / Fold change vs veh, CCT5 / RFU, WDR92 / Fold change vs veh, WDR92 / RFU, CUX1 / Fold change vs veh, CUX1 / RFU, TTC7A / Fold change vs veh, TTC7A / RFU, TMEM135 / Fold change vs veh, TMEM135 / RFU, DEPTOR / Fold change vs veh, DEPTOR / RFU, CPM / Fold change vs veh, CPM / RFU, DNAJB6 / Fold change vs veh, DNAJB6 / RFU, CACNA2D3 / Fold change vs veh, CACNA2D3 / RFU, DTX4 / Fold change vs veh, DTX4 / RFU, TFCP2 / Fold change vs veh, TFCP2 / RFU, GMCL1 /// GMCL1P1 / Fold change vs veh, GMCL1 /// GMCL1P1 / RFU, AEBP2 / Fold change vs veh, AEBP2 / RFU, SNHG1 /// SNORD22 /// SNORD25 /// SNORD26 /// SNORD27 /// SNORD28 /// SNORD29 /// SNORD31 / Fold change vs veh, SNHG1 /// SNORD22 /// SNORD25 /// SNORD26 /// SNORD27 /// SNORD28 /// SNORD29 /// SNORD31 / Fold change (Aza/veh), C12orf56 (ProbeSet 11735607_a_at) / Fold change (ACY-1035/veh), C12orf56 (ProbeSet 11735607_a_at) / Fold change (Aza/veh), FGFR1OP (ProbeSet 11751329_s_at) / Fold change (ACY-1035/veh), FGFR1OP (ProbeSet 11751329_s_at) / Fold change (Aza/veh), VPS36 (ProbeSet 11739960_a_at) / Fold change (ACY-1035/veh), VPS36 (ProbeSet 11739960_a_at) / RFU SYPL1 (11715823_x_at) / Fold change /veh SYPL1 (11715823_x_at) / RFU IGFBP7 (11715501_s_at) / Fold change /veh IGFBP7 (11715501_s_at) / RFU REEP3 (11722064_at) / Fold change /veh REEP3 (11722064_at) / RFU IGLL1 (11728026_x_at) / Fold change /veh IGLL1 (11728026_x_at): dose or concentration left out as unconfirmed. The conditions noted are these: MV-4-11 cells, 48 hours.

The values below come from publication PMC5218480 (PLoS ONE, 2017).

Each structure is given as a SMILES string.

Regarding `Nc1ccc(-c2cccs2)cc1NC(=O)c1ccc2c(c1)cc(C1CC1)n2CCN1CCOCC1` [ACY-1035], the “RFU TMCC2 (11721928_a_at)” value worked out at 13.59 RFU.
